This passage reports Km results from PMC9352556, “Glycogen synthase kinase homolog Rim11 regulates lipid synthesis through the phosphorylation of Pah1 phosphatidate phosphatase in yeast” (The Journal of Biological Chemistry, 2022).

One series deals with T1, Pah1 (Saccharomyces cerevisiae, UniProt P32567).
T1 construct: unphosphorylated
T1 sequence (P32567 1-862): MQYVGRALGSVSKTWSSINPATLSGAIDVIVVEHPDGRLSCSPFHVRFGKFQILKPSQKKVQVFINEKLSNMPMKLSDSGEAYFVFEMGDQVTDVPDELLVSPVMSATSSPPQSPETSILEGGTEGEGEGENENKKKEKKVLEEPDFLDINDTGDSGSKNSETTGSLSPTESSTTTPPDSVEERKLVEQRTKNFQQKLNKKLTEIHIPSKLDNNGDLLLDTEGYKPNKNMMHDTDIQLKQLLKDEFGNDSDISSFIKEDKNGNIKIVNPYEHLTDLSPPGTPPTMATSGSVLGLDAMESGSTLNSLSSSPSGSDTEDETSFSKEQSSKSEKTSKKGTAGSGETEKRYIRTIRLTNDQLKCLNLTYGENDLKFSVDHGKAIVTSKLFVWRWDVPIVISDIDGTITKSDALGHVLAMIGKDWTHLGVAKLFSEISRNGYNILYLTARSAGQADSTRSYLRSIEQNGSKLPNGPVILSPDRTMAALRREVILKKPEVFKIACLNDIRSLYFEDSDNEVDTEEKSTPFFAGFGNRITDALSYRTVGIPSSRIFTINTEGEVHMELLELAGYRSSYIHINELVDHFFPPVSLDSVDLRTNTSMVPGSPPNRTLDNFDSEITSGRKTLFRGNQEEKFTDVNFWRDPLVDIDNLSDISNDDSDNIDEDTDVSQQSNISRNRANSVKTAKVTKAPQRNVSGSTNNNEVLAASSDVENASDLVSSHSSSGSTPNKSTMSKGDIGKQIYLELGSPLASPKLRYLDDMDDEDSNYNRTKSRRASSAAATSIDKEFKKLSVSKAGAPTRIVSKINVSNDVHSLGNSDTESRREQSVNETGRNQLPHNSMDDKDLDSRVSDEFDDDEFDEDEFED
The series can be described thus: release of […] from […]PA, Triton X-100/PA mixed micelles. Format: biochemical. The note with it: unphosphorylated Pah1; surface concentration of PA in micelles; cooperative, n = 3.4; 1 mM MgCl2, pH 7.5, 30 °C; labelled compound.

Substrate in the series “purified protein”: Nc1ncnc2c1ncn2[C@@H]1O[C@H](COP(=O)(O)OP(=O)(O)OP(=O)(O)O)[C@@H](O)[C@H]1O
The series can be described thus: purified protein. In kind it is biochemical, Saccharomyces cerevisiae. The note with it: co-substrate 0.25 μM E. coli-expressed Pah1, 10 mM MgCl2, pH 7.5, 30 °C, labelled compound.

As to phosphatidate, the Km at Pah1 came to 4.2 mol %.

B1: Rim11 (Saccharomyces cerevisiae S288C) (protein)
chain: MNIQSNNSPNLSNNIVSKQVYYAHPPPTIDPNDPVQISFPTTEVVGHGSFGVVFATVIQETNEKVAIKKVLQDKRFKNRELEIMKMLSHINIIDLKYFFYERDSQDEIYLNLILEYMPQSLYQRLRHFVHQRTPMSRLEIKYYMFQLFKSLNYLHHFANVCHRDIKPQNLLVDPETWSLKLCDFGSAKQLKPTEPNVSYICSRYYRAPELIFGATNYTNQIDIWSSGCVMAELLLGQPMFPGESGIDQLVEIIKILGTPSKQEICSMNPNYMEHKFPQIKPIPLSRVFKKEDDQTVEFLADVLKYDPLERFNALQCLCSPYFDELKLDDGKINQITTDLKLLEFDENVELGHLSPDELSSVKKKLYPKSK
notes: purified from S. cerevisiae (pSK001, pYES2); endogenously phosphorylated (Tyr199)
For the molecule B1, the Km in the series “purified protein” was found to be 30 µM.
